Results from ChEMBL document CHEMBL5303711, “ECBD screening data for assay EOS300108” (2023).
Activity calls are given as the source filed them. No rule for the calls is given here.

Assay: Cytotoxicity activity against human HepG2 cells assessed by CellTiter-Glo luminescent cell viability assay.
Assay type: toxicity, cell-based
Design: assay stage confirmatory assay, source tissue liver
Details: HepG2 cells, read-out: IC50 relative
In the case of `Nc1nc(S)c2ncn(C3OC(CO)C(O)C3O)c2n1` (centres undefined), the CC50 is reported as 2.5 µM (active).
With `Cc1[nH]c2ccccc2c1CN1CCN(c2ccccn2)CC1` the CC50 was 12.9 µM (inactive).
With `NCCCCNS(=O)(=O)c1ccc2c(Cl)cccc2c1` the CC50 was 13 µM (active).
With `CSc1cccc(NS(=O)(=O)c2ccc3c(c2)CCN3C(C)=O)c1` the CC50 was 6.6 µM (active).
For `CC1CCC(C(C)C)C(OC(=O)Cn2c(-c3ccc(Br)cc3)[n+](C)c3ccccc32)C1` (centres undefined), the CC50 was 4.7 µM (active).
In the case of `CC1(C)CC(Nc2ccc(Nc3ccccc3)cc2)CC(C)(C)N1`, the CC50 is reported as 10.9 µM (active).
For `CCOc1cc(C(Nc2cc(C)ccn2)c2ccc3cccnc3c2O)ccc1OC` (centres undefined), the CC50 was 3.7 µM (active).
In the case of `O=[N+]([O-])c1ccc(CN2CCOCCOCCN(Cc3ccc([N+](=O)[O-])cc3)CCOCC2)cc1`, the CC50 is reported as 10.4 µM (active).
With `Nc1c(C(=O)NCc2ccco2)c2nc3ccccc3nc2n1CCN1CCCCC1` the CC50 was 8.9 µM (active).
In the case of `Cc1ccc(C)c(C(=O)CN2C3=NCCCN3c3ccccc32)c1`, the CC50 is reported as 9.6 µM (active).
In the case of `CCC1=NNc2cccc3c(OC)ccc1c23`, the CC50 is reported as 8.8 µM (active).
In the case of `O=c1oc(-c2ccccc2)cc(Cl)c1Cl`, the CC50 is reported as 5.5 µM (active).
In the case of `CC(C)(C)C(=O)/C(=C/c1cccc([N+](=O)[O-])c1)n1cncn1`, the CC50 is reported as 0.6 µM (active).
With `COc1ccc2c(C)nc(Nc3nc(C)c(C)c(=O)[nH]3)nc2c1` the CC50 was 6.7 µM (active).
With `CCOCc1ccc(O)c2ncccc12` the CC50 was 5.6 µM (active).
With `CC1OC(OC2CC(O)C3(CO)C4C(O)CC5(C)C(C6=CC(=O)OC6)CCC5(O)C4CCC3(O)C2)C(O)C(O)C1O` (centres undefined) the CC50 was 0.1 µM (active).
For `O=S(=O)(c1ccccc1)N1CCN(c2ccc(Nc3ccncc3)nn2)CC1`, the CC50 was 16.9 µM (inactive).
For `O=C(CC1Sc2ncnn2C1=O)Nc1ccc(Br)cc1` (centres undefined), the CC50 was 15.3 µM (inactive).
In the case of `CCOC(=O)C(C)Oc1cccc2c(=O)n(CC(=O)Nc3ccc4c(c3)OCCO4)ccc12` (centres undefined), the CC50 is reported as 50 µM (inactive).
With `CCOC(=O)C(C)Oc1cccc2c(=O)n(CC(=O)Nc3ccc(OC)cc3)ccc12` (centres undefined) the CC50 was 15.4 µM (inactive).
With `CCOC(=O)C1CCCN(C(=O)C(=O)c2c[nH]c3ccccc23)C1` (centres undefined) the CC50 was 9.8 µM (active).
For `COc1ccc(Nc2nccc(-c3ccncc3)n2)cc1`, the CC50 was 4.7 µM (active).
With `Brc1c(Br)c(Br)c2[nH]cnc2c1Br` the CC50 was 7.4 µM (active).
With `O=C1CCCN1c1ccc(S(=O)(=O)Nc2cccc3cccnc23)cc1` the CC50 was 9.7 µM (active).
For `CCN1/C(=C/c2ccc3ccccc3[n+]2CC)C=Cc2ccccc21`, the CC50 was 1 µM (active).
With `O=C1C(=O)c2cc([N+](=O)[O-])ccc2-c2ccccc21` the CC50 was 1.5 µM (active).
With `COc1cc2c(N3CCN(C(=O)Nc4ccc(OC(C)C)cc4)CC3)ccnc2cc1OCCCN1CCCCC1` the CC50 was 7.4 µM (active).
For `C[C@]12CCC3[C@@H](CC[C@]4(O)C[C@@H](O)CC[C@]34C=O)[C@@]1(O)CC[C@@H]2C1=CC(=O)OC1` (some centres undefined), the CC50 was 0.4 µM (active).
With `CC1CC[C@@]2(NC1)O[C@H]1C[C@H]3[C@@H]4CC=C5CC(O)CCC5(C)C4CCC3(C)[C@H]1[C@@H]2C` (some centres undefined) the CC50 was 25.1 µM (inactive).
With `COc1ccc(N2C(=O)/C(=C\c3ccc(O)c(Br)c3)SC2=S)cc1` the CC50 was 10.3 µM (active).
With `COc1cc(OC)cc(-c2nnc(Nc3nc4c(F)cccc4s3)o2)c1` the CC50 was 27.8 µM (inactive).
With `CCC(C)C1OC2(CCC1C)CC1CC(C/C=C(/C)C(OC3CC(OC)C(OC4CC(OC)C(O)C(C)O4)C(C)O3)C(C)/C=C\C=C3\COC4C(O)C(C)=CC(C(=O)O1)C34O)O2` (centres undefined) the CC50 was 11.1 µM (active).
For `CN(C)c1nc(Nc2ccc(O)cc2)nc2ccccc12`, the CC50 was 9.7 µM (active).
In the case of `CN(C)c1nc(Nc2cccc(O)c2)nc2ccccc12`, the CC50 is reported as 12.7 µM (active).
For `CC1CCN(CCNC(=O)c2c(O)c3sccc3n(Cc3ccccc3)c2=O)CC1`, the CC50 was 22.3 µM (inactive).
For `Oc1cccc2ccc(Nc3ccccn3)nc12`, the CC50 was 0.7 µM (active).
For `Cc1ccc(Cl)cc1N1CCN(c2cc([C@H]3C[C@@H](O)C3)ncn2)CC1`, the CC50 was 9.5 µM (active).
With `CN(C)CCCN(CCCN(C)C)CC(c1ccccc1)c1ccccc1` the CC50 was 7.2 µM (active).
With `COc1ccc(-c2ccc(CNCCNCCO)o2)cc1Cl` the CC50 was 11.4 µM (active).
In the case of `Cc1ccn(-c2cc(N3CCN(C(=O)Nc4ccc5c(c4)OCCO5)CC3)ncn2)n1`, the CC50 is reported as 10.7 µM (active).
In the case of `COC1=C2C[C@@H](C)C[C@H](OC)[C@H](O)[C@@H](C)/C=C(/C)[C@H](OC(N)=O)[C@@H](OC)/C=C\C=C(\C)C(=O)NC(=CC1=O)C2=O`, the CC50 is reported as < 0.1 µM (active).
With `CC1CCN(CC(O)COc2ccccc2C(C)(C)C)CC1` (centres undefined) the CC50 was 9.6 µM (active).
In the case of `CCc1ccc(S(=O)(=O)N2CCN(c3cc(-n4ccc(C)n4)ncn3)CC2)cc1`, the CC50 is reported as 6.7 µM (active).
In the case of `O=S(=O)(Nc1cccc2cccnc12)c1ccc2c(c1)OCCO2`, the CC50 is reported as 10.4 µM (active).
In the case of `CCOc1ccccc1CN1CCN(Cc2ccc(C)cc2)CC1CCO` (centres undefined), the CC50 is reported as 12.9 µM (inactive).
In the case of `CCN1CCN(CCOc2ccc3ccccc3c2Cl)CC1`, the CC50 is reported as 8 µM (active).
For `COc1cccc(-c2ccc(=O)n(CC(=O)Nc3ccccn3)n2)c1`, the CC50 was 6.8 µM (active).
For `Cc1cc(OCC(O)CN2CCN(C)CC2)cc(C)c1Cl` (centres undefined), the CC50 was 13.9 µM (inactive).
With `Cc1ccc(S(=O)(=O)N2CCN(c3cc(-n4ccnc4C)ncn3)CC2)cc1C` the CC50 was 5.1 µM (active).
In the case of `O=S(=O)(c1ccc(F)cc1)N1CCN(c2ccc(Nc3ccncc3)nn2)CC1`, the CC50 is reported as 13.6 µM (inactive).
For `O=C(Nc1n[nH]c(C2CC2)n1)C1CC(=O)N(c2ccc(Br)cc2)C1` (centres undefined), the CC50 was 1.8 µM (active).
With `CC1CC(C)CN(CCCNC(=O)Cn2nc(-c3ccc(Cl)cc3)ccc2=O)C1` (centres undefined) the CC50 was 14.5 µM (inactive).
With `CC(CNC(=O)C1CCN(C)CC1)Cc1cccc2ccccc12` (centres undefined) the CC50 was 11.2 µM (active).
With `Cc1csc(NC(=O)CC[C@@H]2NC(=O)N(CCc3cccc(F)c3)C2=O)n1` the CC50 was 8.9 µM (active).
In the case of `Nc1ccc(O)c2ncccc12`, the CC50 is reported as 1.4 µM (active).
With `O=c1[nH]c2ccccc2n1C1CCN(c2nccc(-c3cccnc3)n2)CC1` the CC50 was 11.2 µM (active).
With `c1ccc(-c2ccc(CNC3CN4CCC3CC4)cc2)cc1` (centres undefined) the CC50 was 5.6 µM (active).
With `CN(C)CCCN(CCCN(C)C)CC1=CCC2CC1C2(C)C` (centres undefined) the CC50 was 9.6 µM (active).
For `CC(C)c1cc(Br)ccc1OCCCN1CCN(C)CC1`, the CC50 was 4.1 µM (active).
In the case of `CCn1c(Oc2cccc3cccnc23)nc2c1c(=O)n(C)c(=O)n2C`, the CC50 is reported as 2.9 µM (active).
In the case of `CNc1nc(Nc2cccc(NC(C)=O)c2)nc2ccccc12`, the CC50 is reported as 5.2 µM (active).
In the case of `COc1ccc(CCN2C(=O)N(C)C(=O)C23CCN(Cc2cccc(OC)c2)CC3)cc1`, the CC50 is reported as 6.6 µM (active).
For `COc1cc(CN2CCN(c3ccccc3C)CC2)ccc1O`, the CC50 was 8 µM (active).
In the case of `CCCc1cc(N2CCN(CCO)CC2)n2ncc(-c3ccccc3)c2n1`, the CC50 is reported as 11.5 µM (active).
For `Cc1ccn(-c2cc(N3CCN(C(=O)Nc4ccc5c(c4)OCO5)CC3)ncn2)n1`, the CC50 was 15.7 µM (inactive).
For `CCCc1cc(NCCCN2CCOCC2)n2ncc(-c3ccccc3)c2n1`, the CC50 was 10.8 µM (active).
With `CC1CN(CCS(=O)(=O)c2ccc(Oc3ccc(S(=O)(=O)CCN4CC(C)OC(C)C4)cc3)cc2)CC(C)O1` (centres undefined) the CC50 was 6.1 µM (active).
In the case of `CN(C)CCNCc1cccc(OCc2ccc(F)cc2)c1`, the CC50 is reported as 15 µM (inactive).
In the case of `CN1CCN(CCCCOc2ccc(-c3ccccc3)cc2)CC1`, the CC50 is reported as 4 µM (active).
In the case of `Cc1ccccc1OCC(=O)Nc1ccc(OC2CCN(C)CC2)cc1`, the CC50 is reported as 13.6 µM (inactive).
With `COc1ccc(OC)c(S(=O)(=O)Nc2ccc3nc(S(C)(=O)=O)sc3c2)c1` the CC50 was 6.9 µM (active).
With `Cc1ccc(S(=O)(=O)N2CCN(c3ccc(Nc4ccncc4)nn3)CC2)cc1` the CC50 was 10.4 µM (active).
In the case of `c1ccc2c(NCCCCCCNc3c4c(nc5ccccc35)CCCC4)c3c(nc2c1)CCCC3`, the CC50 is reported as 1.2 µM (active).
With `COc1cccc(-c2noc(-c3ccc(N4CCN(C(C)C)CC4)nc3)n2)c1OC` the CC50 was 13.1 µM (active).
For `CC(C)c1ccc(CN(CCCN(C)C)CCCN(C)C)cc1`, the CC50 was 8.8 µM (active).
In the case of `Cc1cc(F)ccc1N1CCC(N[C@@H]2CCOC[C@H]2OCC2CC2)CC1`, the CC50 is reported as 15.6 µM (inactive).
For `COc1ccc(C(O)CN2CCN(c3cc(C)ccc3C)CC2)cc1OC` (centres undefined), the CC50 was 10.2 µM (active).
In the case of `CCN1CCN(CC(O)COc2cc(C)c(Cl)c(C)c2)CC1` (centres undefined), the CC50 is reported as 12.8 µM (inactive).
With `Cc1cc(OCC(O)CN2CCCCC2)cc(C)c1Cl` (centres undefined) the CC50 was 10.5 µM (active).
For `CCc1ccc(NC(=O)N2CCN(c3cc(-n4ccc(C)n4)ncn3)CC2)cc1`, the CC50 was 46.2 µM (inactive).
In the case of `CCCCn1c(=O)c(C(=O)Nc2ccc(O)cc2)c(O)c2ccccc21`, the CC50 is reported as 23 µM (inactive).
With `C[C@@H](C(=O)Nc1c2c(nn1C)CSC2)N1Cc2ccccc2C1=O` the CC50 was 15.8 µM (inactive).
With `CCc1cccc(NC(=O)N2CCN(c3ccnc(N4CCCC4)n3)CC2)c1` the CC50 was 13.5 µM (inactive).
For `CS(=O)(=O)N1CCc2ccc(NC(=O)Nc3ccc(F)cc3F)cc21`, the CC50 was 24.5 µM (inactive).
For `NCc1ccc(-c2ccccc2)s1`, the CC50 was 5.9 µM (active).
With `Cc1cc(NC(=O)CSC(C)C)cc2sc(N)nc12` the CC50 was 13.7 µM (active).
With `COc1cc(CNCCN(C)C)ccc1OCc1ccc(F)cc1` the CC50 was 13.1 µM (active).
For `CN(c1ccc(C(=O)Nc2ccc(S(=O)(=O)N3CCOCC3)cc2)cc1)S(=O)(=O)c1ccccc1`, the CC50 was 2.9 µM (active).
For `COc1cccc(NC(=O)N2CCN(c3ccnc(N4CCCCC4)n3)CC2)c1`, the CC50 was 11.5 µM (active).
For `O=C(Nc1ccc2c(c1)OCCO2)N1CCN(c2ccnc(N3CCCCC3)n2)CC1`, the CC50 was 12.1 µM (active).
In the case of `CN1CCN(C)C(CNc2ncc(F)c(N(C)C)n2)C1` (centres undefined), the CC50 is reported as 50 µM (inactive).
With `Nc1nc(Nc2ccc3c(c2)OCCO3)nc2ccccc12` the CC50 was 8.7 µM (active).
With `CCOc1cc(CNCC(C)O)ccc1OCc1ccc(C)cc1` (centres undefined) the CC50 was 9.4 µM (active).
With `CC1(C)CC(=O)c2cn(-c3ccccc3)c(=O)c(C(=O)Nc3cccnc3)c2C1` the CC50 was 9.2 µM (inactive).
With `O=C(Nc1nc(-c2ccc(S(=O)(=O)N3CCOCC3)cc2)cs1)c1cccs1` the CC50 was 5.3 µM (active).
With `Cc1cc(OCCOCCN2CCN(C)CC2)c(Cl)c(C)c1Cl` the CC50 was 5.3 µM (active).
For `FC(F)(F)c1cccc(Nc2nc(-c3ccccc3)nc3ncccc23)c1`, the CC50 was 41.6 µM (inactive).
In the case of `Cc1ccc(Sc2cccc3nc(N)nc(N)c23)cc1`, the CC50 is reported as 8.3 µM (active).
With `COc1ccc(Nc2nccc(-c3cccnc3)n2)cc1` the CC50 was 9.9 µM (active).
